Laboratory results: patent publication US11021545B2, “Multimodal cancer therapy comprising chimeric viral/nonviral nanoparticles and anticancer agents” (The Regents of the University of California, priority 2018, dated 2021)

Tested on: BCR-ABL+ FL 5.12 p190 cells
Assay: cells
Settings: Mus musculus, FL5.12, read-out: IC50 of dasatinib without ChNPs
Method: Viability was tested three days after delivery. […] After 24 h, PBS, BIM AAV alone, MCL-1 siRNA alone, mixture of BIM AAV and siRNA, and various ChNPs (Null/Scr, Null/MCL-1, BIM/Scr, BIM/MCL-1 ChNPs) are added to the cells at different BIM AAV and MCL-1 siRNA concentrations. To measure cell viability, the cells maintained with fresh media everyday are pelleted by centrifugation (2000 rpm, 5 min, 4° C.) and resuspended in fresh media. The cells in 90 μL medium then are transferred into a 96-well plate where MTT (5 mg/mL in 10 μL PBS) is subsequently added. After 4 h of incubation at 37° C., the well plate is centrifuged at 2000 rpm and 4° C. for 5 min, and the media is replaced by 100 μL DMSO per well. The relative cell viability is quantified by comparing absorptions at 570 nm using a microplate reader (Synergy H1, Biotek), based on the absorption in the wells containing nontreated cells.

Cc1nc(Nc2ncc(C(=O)Nc3c(C)cccc3Cl)s2)cc(N2CCN(CCO)CC2)n1 [dasatinib]
IC50: 1 nM
